Patent US8791132B2, “Compounds and methods for treatment of hypertension” (Medivation Technologies, Inc., priority 2011, dated 2014)

Key:
[1] = tested on: conscious New Zealand White rabbits; assay: Blood pressure in conscious rabbits; assay type: in vivo, rabbit
Procedure: Methods: Four adult New Zealand White rabbits of both sexes were chosen for these studies. […] To unveil peripheral effects of Compound 3b, two sets of acute studies were conducted in rabbits. […] A single intravenous bolus dose at 3 mg/kg was given and a time-course study was conducted in the second set of studies. Systolic, […], mean and […] blood pressures were recorded in both the studies. […] In a separate set of studies, Clonidine (positive control) was tested where all experimental procedures including dose-regimen were identical to that of the studies with […].

[2] = biological target: T1, human recombinant adrenergic α1D receptor (Homo sapiens, UniProt P25100); assay: Radioligand binding, adrenergic α1D ([3H]Prazosin)
T1 construct: expressed in transfected cells; host or cells: HEK-293
T1 sequence (P25100 1-572): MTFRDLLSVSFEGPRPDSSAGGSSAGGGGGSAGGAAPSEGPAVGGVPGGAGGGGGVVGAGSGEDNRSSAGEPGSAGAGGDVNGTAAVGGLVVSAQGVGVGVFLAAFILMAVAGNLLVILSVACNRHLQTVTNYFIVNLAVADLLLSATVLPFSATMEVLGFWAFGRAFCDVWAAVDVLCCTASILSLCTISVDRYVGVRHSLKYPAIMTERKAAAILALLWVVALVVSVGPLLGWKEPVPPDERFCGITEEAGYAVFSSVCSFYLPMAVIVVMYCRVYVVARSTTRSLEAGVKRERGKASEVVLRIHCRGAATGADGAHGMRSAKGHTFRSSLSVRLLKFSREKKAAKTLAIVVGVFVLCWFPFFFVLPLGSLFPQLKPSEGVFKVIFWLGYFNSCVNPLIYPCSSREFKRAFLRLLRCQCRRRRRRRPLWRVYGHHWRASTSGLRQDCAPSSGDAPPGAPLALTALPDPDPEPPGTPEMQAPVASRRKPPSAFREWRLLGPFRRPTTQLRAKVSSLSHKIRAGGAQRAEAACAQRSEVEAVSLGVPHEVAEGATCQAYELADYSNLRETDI

## Cc1ccc2c(c1)c1c(n2CC(O)c2ccncc2)CCN(C)C1 (single isomer, unassigned) [3b]
[1]; i.v. cumulative dose-response study
  dose that produced 80% of the maximum drop in blood pressure: 3 mg/kg
[1]; i.v. cumulative dose-response study (FIG. 26, fourth panel)
  heart rate: tachycardia
[1]; i.v. cumulative dose-response study, Compound 3b maximum at 10 mg/kg
  maximum arterial blood pressure drop: −11.6 mmHg
[1]; single i.v. bolus dose at 3 mg/kg, 3 hours data collection
  duration of arterial blood pressure effect: stable from 90 to 180 minutes
[1]; single i.v. bolus dose at 3 mg/kg, time-course study (FIG. 27)
  drop in arterial blood pressure: ~−6 mmHg
[2]
  Ki: 258 nM
